Data taken from publication PMC8287724, “Reducing Auditory Nerve Excitability by Acute Antagonism of Ca^2+-Permeable AMPA Receptors” (Frontiers in Synaptic Neuroscience, 2021).

Experiment: Heart rate and blood oxygenation monitoring during systemic dosing
Assay type: in vivo, guinea pig
Conditions: IP injection: IEM-1460 13.5 mg/kg, IEM-1925 8 mg/kg; N = 4
Procedure: This study utilized 21 NIH-strain, pigmented guinea pigs weighing from 400 to 650 g, in accordance with policies and protocols approved by the Institutional Animal Care and Use Committee at Washington University in St. Louis (20180133, 20190035). Animals were anesthetized with intraperitoneal (IP) injection of 100 mg/kg sodium thiobutabarbital (Inactin, Sigma, St. Louis, MO). Once anesthetized, the fur from the head and neck was shaved and a tracheal cannula was placed. The animal was maintained on 0.8–1.2% isoflurane in oxygen using a mechanical ventilator. The ventilator's tidal volume was adjusted to maintain a 5% end-tidal CO2 which was monitored with a CapnoTrue AMP (Bluepoint Medical, Zevenaar, The Netherlands). Body temperature was maintained at 38 degrees C with a DC-powered heating blanket-rectal thermometer (Model 50-7079; Harvard Apparatus). Heart rate and oxygen saturation were monitored with a pulse oximeter (Surgivet, Waukesha, WI). The auditory bulla was exposed ventrally for placement of recording electrodes. The jugular vein was cannulated to maintain hydration with 0.5 mL per hour of Lactated Ringer's solution. […]
Systemic delivery of IEM-1925 (8 mg/kg, IP) reduced CAP amplitude to a similar extent as IEM-1460 (13.5 mg/kg, IP). […] Blood oxygenation and heart rate were monitored along with cochlear physiology during the time course of the experiment. […]

In the case of `NCCCCCNC1(c2ccccc2)CCCCC1` [IEM-1925], the “temporary reduction in heart rate” value was “No such reduction”.
